According to US6335367B1 (priority 1999, dated 2002):

How the values were obtained:
Type in all cases: in vivo
[1] = tested on: Pucciitia recoitdita (f. sp. tritici); conditions: 300 grams per hectare; protective spray, inoculated one day after treatment; evaluated after 12 days
Plasiitopara viticola = assay: Grape Downy Mildew (GDM) protective test on grape plants; conditions: 300 grams/hectare; protective spray; seven days after inoculation
Method: Numerous compounds of this invention were tested for fungicidal activity in vivo against the diseases described below. The compounds were dissolved a 1:1 mixture of acetone and methanol or N, N-dimethylformamide and diluted with a 2:1:1 mixture of water, acetone, and methanol (by volume) or water, respectively, to achieve the appropriate concentration. The solution was sprayed onto the plants, and allowed to dry (two hours). Then the plants were inoculated with fungal spores. Each test utilized control plants which were sprayed with the appropriate solvent mixture and inoculated. For these protective tests, the plants were inoculated one day after treating the plants with the fungicide compound. The remainder of the technique of each of the tests is given below along with the results for various compounds described herein by the Compound # against the various fungi at a dose of 300 grams per hectare. The results are percent disease control are compared to the untreated check wherein one hundred was rated as complete disease control and zero as no disease control.
Plasiitopara viticola was maintained on leaves of grape plants, cultivar. Delaware, in a controlled temperature chamber at 20° C. in humid air with moderate light intensity for 7 to 8 days. A water suspension of the spores from infested leaves was obtained and the spore concentration was adjusted to about 3×10^5 per ml of water. Delaware grape plants were inoculated by spraying the underside of leaves with a DeVilbiss atomizer until small drops were observed on the leaves. The inoculated plants were incubated in a mist chamber for 24 hours at 20° C. The plants were then removed to a controlled environmental room at 20° C. Disease control values were recorded as percent control seven days after inoculation.

[2] = tested on: Mexican bean beetle Epilachiba varivestis; assay: Insecticidal leaf disk test, Mexican bean beetle (BB); conditions: 300 grams/hectare; sprayed leaf disk; visual inspection 24-48 hours after spraying
Method: (§1) Numerous compounds of this invention were tested for insecticidal activity in vivo against the insects described below. The following test method was used to evaluate compounds of the present invention for insecticidal activity. The compound to be evaluated was dissolved in an appropriate solvent, usually a mix of acetone, methanol and water, and sprayed over three excised leaf disks using a flat fan nozzle. After spraying, the leaf disks were allowed to dry. Two disks were infested with the leaf chewing insects (southern armyworm and Mexican bean beetle) and the third leaf disk was already infested with the two-spotted spider mite prior to spraying. The tested insect species were:
BB Mexican bean beetle Epilachiba varivestis
(§2) Observations as percent control were made by visual inspection 24-48 hours after spraying.

[3] = tested on: two-spotted spider mite Teranychus uricate; assay: Insecticidal leaf disk test, two-spotted spider mite (MTA); conditions: 300 grams/hectare; leaf disk infested prior to spraying; visual inspection 24-48 hours after spraying
Method: as §1
MTA two-spotted spider mite Teranychus uricate
as §2

SMILES	percent disease control, wheat leaf rust [1] [%]	percent disease control, grape downy mildew (Plasiitopara viticola) [%]	percent control, Mexican bean beetle [2] [%]	percent control, two-spotted spider mite [3] [%]
CNC(=O)C(=NOC)c1ccccc1COc1cccc(C2CC2C(C)=NOC)c1 (single isomer, unassigned) [Compound 3.18B]	100	100		
COC=C(C(=O)OC)c1ccccc1COc1cccc(C2CC2C(C)=NOC)c1 (single isomer, unassigned) [Compound 1.18B]	100	100	100	100
COC=C(C(=O)OC)c1ccccc1COc1cccc(C2CC2C(=NOC)c2ccc(Cl)cc2)c1 (stereo not shown) [Compound 1.04]	100			100
CCON=C(C1CC1)C1CC1c1cccc(OCc2ccccc2C(=COC)C(=O)OC)c1 (single isomer, unassigned) [Compound 1.108B]	100	100		
COC=C(C(=O)OC)c1ccccc1COc1cccc(C2CC2C(=NOC(C)(C)C)C2CC2)c1 (stereo not shown) [Compound 1.110]			100	100
COC=C(C(=O)OC)c1ccccc1COc1cccc(C2CC2C(=NOC)C2CC=C(C)CC2)c1 (stereo not shown) [Compound 1.33]			100	100
CCC(C)C(NNc1ccccc1)=C1CC1c1cccc(OCc2ccccc2/C(=C\OC)C(=O)OC)c1 (stereo not drawn) [Compound 4.17, Methyl (E)-3-methoxy-2-trans-[2-(3-(2-(2-ethyl-1-(2-phenylhydrazino)propylidene)cyclopropyl)phenoxymethyl)phenyl]-2-propenoate]	100			
COC=C(C(=O)OC)c1ccccc1COc1cccc(C2CC2C(=NOCc2ccccc2)C2CC2)c1 (stereo not shown) [Compound 1.115]		100	100	100
COC=C(C(=O)OC)c1ccccc1COc1cccc(C2CC2C(C)=NOC)c1 (single isomer, unassigned) [Compound 1.18A]	100	100	100	100
COC=C(C(=O)OC)c1ccccc1COc1cccc(C2CC2C(CC(C)C)=NOC)c1 (stereo not shown) [Compound 1.24]		100	100	100
COC=C(C(=O)OC)c1ccccc1COc1cccc(C2CC2C(=NNC(=O)c2ccccc2)C2CC2)c1 (stereo not drawn) [Compound 4.98, Methyl (E)-3-methoxy-2-trans-[2-(3-(2-(1-(N-benzoylhydrazinomethylidine)cycloprop-1-yl)cyclopropyl)phenoxymethyl)phenyl]-2-propenoate]	100			
CCCCCCC(=NOC)C1CC1c1cccc(OCc2ccccc2/C(=C\OC)C(=O)OC)c1 (stereo not drawn) [Compound 1.23, Methyl (E)-3-methoxy-2-trans-[2-(3-(2-(methoximinohept-1-yl)cyclopropyl)-phenoxymethyl)phenyl]-2-propenoate]		100	100	100
CNC(=O)C(=NOC)c1ccccc1COc1cccc(C2CC2C(=NOC)C2CC2)c1 (stereo not shown) [Compound 3.34]	100	100		
CCON=C(C1CC1)C1CC1c1cccc(OCc2ccccc2C(=COC)C(=O)OC)c1 (single isomer, unassigned) [Compound 1.108A]	100	100	100	100
CNC(=O)C(=NOC)c1ccccc1COc1cccc(C2CC2C(C)=NOC)c1 (single isomer, unassigned) [Compound 3.18A]	100			
CO/C=C(/C(=O)OC)c1ccccc1COc1cccc(C2CC2C(=NOC)C2CC2)c1 (stereo not drawn) [Compound 1.34, Methyl (E)-3-methoxy-2-trans-[2-(3-(2-(methoximinocycloprop-1-yl)cyclopropyl)phenoxymethyl)phenyl]-2-propenoate]	100	100	100	100
